Assay results from patent US8367873B2, “Phenyl-substituted bicyclooctane-1,3-dione derivatives” (Bayer Cropscience AG, priority 2008, dated 2013).

Tests used:
Type in all cases: in vivo
[1] = tested on: monocotylidonous and dicotylidonous weed and crop plants; test: Herbicidal pre-emergence action (other test plants); conditions: pre-emergence method, 80 g/ha, greenhouse, visual assessment vs untreated controls
Summary of the method: (§1)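 Visual percent damage score (100% = dead plants, 0% = as untreated control) taken three weeks after pre-emergence treatment. Compounds were wettable powders sprayed onto covering soil over seeds in sandy loam, 600 l/ha water with 0.2% wetting agent, several application amounts; pots kept in greenhouse.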

[2] = tested on: monocotylidonous and dicotylidonous weed and crop plants; test: Herbicidal post-emergence action (other test plants); conditions: post-emergence method, 80 g/ha
Summary of the method: (§2)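 Greenhouse-grown weeds were treated post-emergence at the one-leaf stage, two to three weeks after sowing in sandy loam. Compounds formulated as WP were sprayed at various rates in 600 l/ha water with 0.2% wetting agent. Damage was scored visually after about three weeks versus untreated controls (0% = like control, 100% = dead).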

[3] = tested on: Setaria viridis; test: Herbicidal post-emergence action; conditions: post-emergence method, 80 g/ha
Summary of the method: as §2

[4] = tested on: Lolium multiflorum; test: Herbicidal post-emergence action; conditions: post-emergence method, 80 g/ha
Summary of the method: as §2

[5] = tested on: Alopecurus myosuroides; test: Herbicidal post-emergence action; conditions: post-emergence method, 80 g/ha
Summary of the method: as §2

[6] = tested on: Echinocloa crus-galli; test: Herbicidal post-emergence action; conditions: post-emergence method, 80 g/ha
Summary of the method: as §2

[7] = tested on: Setaria viridis; test: Herbicidal pre-emergence action; conditions: pre-emergence method, 80 g/ha, greenhouse, visual assessment vs untreated controls
Summary of the method: as §1

[8] = tested on: Lolium multiflorum; test: Herbicidal pre-emergence action; conditions: pre-emergence method, 80 g/ha, greenhouse, visual assessment vs untreated controls
Summary of the method: as §1

[9] = tested on: Alopecurus myosuroides; test: Herbicidal pre-emergence action; conditions: pre-emergence method, 80 g/ha, greenhouse, visual assessment vs untreated controls
Summary of the method: as §1

[10] = tested on: Echinocloa crus-galli; test: Herbicidal pre-emergence action; conditions: pre-emergence method, 80 g/ha, greenhouse, visual assessment vs untreated controls
Summary of the method: as §1

CCC(C)(C)C(=O)OC1=C(c2c(C)cc(C)cc2C)C(=O)C2CC3(COC(C)(C)O3)CC12 (mixture of isomers) [I-b-45]
herbicidal effect AVEFA [1]: 40%
herbicidal effect against AVEFA (Avena fatua) [2]: 0%
herbicidal effect against SETVI (Setaria viridis) [3]: 40%
herbicidal effect against LOLMU (Lolium multiflorum) [4]: 90%
herbicidal effect against ALOMY (Alopecurus myosuroides) [5]: 80%
herbicidal effect against ECHCG (Echinochloa crus-galli) [6]: 90%
herbicidal effect SETVI [7]: 30%
herbicidal effect LOLMU [8]: 60%
herbicidal effect ALOMY [9]: 90%
herbicidal effect ECHCG [10]: 20%

CCOC(=O)OC1=C(c2c(CC)cc(C)cc2CC)C(=O)C2CC3(CC12)OCC(C)(C)CO3 (centres unmarked) [I-c-22]
herbicidal effect AVEFA [1]: 70%
herbicidal effect against AVEFA (Avena fatua) [2]: 100%
herbicidal effect against SETVI (Setaria viridis) [3]: 100%
herbicidal effect against LOLMU (Lolium multiflorum) [4]: 100%
herbicidal effect against ALOMY (Alopecurus myosuroides) [5]: 100%
herbicidal effect against ECHCG (Echinochloa crus-galli) [6]: 100%
herbicidal effect SETVI [7]: 100%
herbicidal effect LOLMU [8]: 100%
herbicidal effect ALOMY [9]: 100%
herbicidal effect ECHCG [10]: 100%

C=C1CC2C(=O)C(c3c(C)cc(C)cc3OC)=C(O)C2C1 (centres unmarked) [I-a-45]
herbicidal effect AVEFA [1]: 60%
herbicidal effect against AVEFA (Avena fatua) [2]: 0%
herbicidal effect against SETVI (Setaria viridis) [3]: 80%
herbicidal effect against LOLMU (Lolium multiflorum) [4]: 0%
herbicidal effect against ALOMY (Alopecurus myosuroides) [5]: 0%
herbicidal effect against ECHCG (Echinochloa crus-galli) [6]: 80%
herbicidal effect SETVI [7]: 100%
herbicidal effect LOLMU [8]: 80%
herbicidal effect ALOMY [9]: 80%
herbicidal effect ECHCG [10]: 100%

CCOC(=O)OC1=C(c2c(CC)cc(C)cc2CC)C(=O)C2CC3(CC12)OCCCS3 (mixture of isomers) [I-c-19]
herbicidal effect AVEFA [1]: 70%
herbicidal effect against AVEFA (Avena fatua) [2]: 100%
herbicidal effect against SETVI (Setaria viridis) [3]: 100%
herbicidal effect against LOLMU (Lolium multiflorum) [4]: 100%
herbicidal effect against ALOMY (Alopecurus myosuroides) [5]: 100%
herbicidal effect against ECHCG (Echinochloa crus-galli) [6]: 100%
herbicidal effect SETVI [7]: 90%
herbicidal effect LOLMU [8]: 90%
herbicidal effect ALOMY [9]: 100%
herbicidal effect ECHCG [10]: 50%

CCOC(=O)OC1=C(c2c(CC)cc(C)cc2CC)C(=O)C2CC3(CC12)OC(C)CC(C)O3 (centres unmarked) [I-c-13]
herbicidal effect AVEFA [1]: 50%
herbicidal effect against AVEFA (Avena fatua) [2]: 80%
herbicidal effect against SETVI (Setaria viridis) [3]: 90%
herbicidal effect against LOLMU (Lolium multiflorum) [4]: 100%
herbicidal effect against ALOMY (Alopecurus myosuroides) [5]: 70%
herbicidal effect against ECHCG (Echinochloa crus-galli) [6]: 100%
herbicidal effect SETVI [7]: 60%
herbicidal effect LOLMU [8]: 80%
herbicidal effect ALOMY [9]: 90%
herbicidal effect ECHCG [10]: 60%

CCOC(=O)OC1=C(c2c(C)cc(C)cc2C)C(=O)C2CC3(CC12)OCC=CCO3 (racemic) [I-c-51]
herbicidal effect AVEFA [1]: 60%
herbicidal effect against AVEFA (Avena fatua) [2]: 40%
herbicidal effect against SETVI (Setaria viridis) [3]: 100%
herbicidal effect against LOLMU (Lolium multiflorum) [4]: 100%
herbicidal effect against ALOMY (Alopecurus myosuroides) [5]: 100%
herbicidal effect against ECHCG (Echinochloa crus-galli) [6]: 100%
herbicidal effect SETVI [7]: 90%
herbicidal effect LOLMU [8]: 90%
herbicidal effect ALOMY [9]: 100%
herbicidal effect ECHCG [10]: 30%

CCOC(=O)OC1=C(c2c(C)cc(C)cc2CC)C(=O)C2CC3(CC12)OCC=CCO3 (racemic) [I-c-72]
herbicidal effect AVEFA [1]: 50%
herbicidal effect against AVEFA (Avena fatua) [2]: 70%
herbicidal effect against SETVI (Setaria viridis) [3]: 100%
herbicidal effect against LOLMU (Lolium multiflorum) [4]: 100%
herbicidal effect against ALOMY (Alopecurus myosuroides) [5]: 100%
herbicidal effect against ECHCG (Echinochloa crus-galli) [6]: 100%
herbicidal effect SETVI [7]: 80%
herbicidal effect LOLMU [8]: 100%
herbicidal effect ALOMY [9]: 60%
herbicidal effect ECHCG [10]: 100%

CCc1cc(C)cc(C)c1C1=C(OC(=O)OC)C2CC3(COC(C)(C)O3)CC2C1=O (mixture of isomers) [I-c-79]
herbicidal effect AVEFA [1]: 80%
herbicidal effect against AVEFA (Avena fatua) [2]: 70%
herbicidal effect against SETVI (Setaria viridis) [3]: 90%
herbicidal effect against LOLMU (Lolium multiflorum) [4]: 100%
herbicidal effect against ALOMY (Alopecurus myosuroides) [5]: 100%
herbicidal effect against ECHCG (Echinochloa crus-galli) [6]: 100%
herbicidal effect SETVI [7]: 80%
herbicidal effect LOLMU [8]: 100%
herbicidal effect ALOMY [9]: 90%
herbicidal effect ECHCG [10]: 100%

CCOC(=O)OC1=C(c2c(CC)cc(C)cc2CC)C(=O)C2CC3(CC12)OCCS3 (mixture of isomers) [I-c-30]
herbicidal effect AVEFA [1]: 90%
herbicidal effect against AVEFA (Avena fatua) [2]: 40%
herbicidal effect against SETVI (Setaria viridis) [3]: 70%
herbicidal effect against LOLMU (Lolium multiflorum) [4]: 100%
herbicidal effect against ALOMY (Alopecurus myosuroides) [5]: 80%
herbicidal effect against ECHCG (Echinochloa crus-galli) [6]: 100%
herbicidal effect SETVI [7]: 60%
herbicidal effect LOLMU [8]: 100%
herbicidal effect ALOMY [9]: 100%
herbicidal effect ECHCG [10]: 80%

CCc1cc(C)cc(CC)c1C1=C(O)C2CC(=NOCC(F)(F)F)CC2C1=O (centres unmarked) [I-a-70]
herbicidal effect AVEFA [1]: 60%
herbicidal effect against AVEFA (Avena fatua) [2]: 0%
herbicidal effect against SETVI (Setaria viridis) [3]: 60%
herbicidal effect against LOLMU (Lolium multiflorum) [4]: 100%
herbicidal effect against ALOMY (Alopecurus myosuroides) [5]: 90%
herbicidal effect against ECHCG (Echinochloa crus-galli) [6]: 100%
herbicidal effect SETVI [7]: 60%
herbicidal effect LOLMU [8]: 80%
herbicidal effect ALOMY [9]: 80%
herbicidal effect ECHCG [10]: 80%

CCc1cc(C)cc(C)c1C1=C(OC(=O)OC(C)C)C2CC3(COC(C)(C)O3)CC2C1=O (mixture of isomers) [I-c-78]
herbicidal effect AVEFA [1]: 90%
herbicidal effect against AVEFA (Avena fatua) [2]: 0%
herbicidal effect against SETVI (Setaria viridis) [3]: 80%
herbicidal effect against LOLMU (Lolium multiflorum) [4]: 100%
herbicidal effect against ALOMY (Alopecurus myosuroides) [5]: 100%
herbicidal effect against ECHCG (Echinochloa crus-galli) [6]: 90%
herbicidal effect SETVI [7]: 80%
herbicidal effect LOLMU [8]: 100%
herbicidal effect ALOMY [9]: 100%
herbicidal effect ECHCG [10]: 100%

C=C1CC2C(=O)C(c3c(C)cc(C)cc3C)=C(OC(=O)OCC)C2C1 (racemic) [I-c-45]
herbicidal effect AVEFA [1]: 80%
herbicidal effect against AVEFA (Avena fatua) [2]: 0%
herbicidal effect against SETVI (Setaria viridis) [3]: 90%
herbicidal effect against LOLMU (Lolium multiflorum) [4]: 100%
herbicidal effect against ALOMY (Alopecurus myosuroides) [5]: 40%
herbicidal effect against ECHCG (Echinochloa crus-galli) [6]: 90%
herbicidal effect SETVI [7]: 80%
herbicidal effect LOLMU [8]: 80%
herbicidal effect ALOMY [9]: 60%
herbicidal effect ECHCG [10]: 80%

C=C1COC2(C[C@@H]3C(OC(=O)OCC)=C(c4c(CC)cc(C)cc4CC)C(=O)[C@@H]3C2)OC1 (relative stereo) [I-c-12]
herbicidal effect AVEFA [1]: 80%
herbicidal effect against AVEFA (Avena fatua) [2]: 90%
herbicidal effect against SETVI (Setaria viridis) [3]: 100%
herbicidal effect against LOLMU (Lolium multiflorum) [4]: 100%
herbicidal effect against ALOMY (Alopecurus myosuroides) [5]: 90%
herbicidal effect against ECHCG (Echinochloa crus-galli) [6]: 100%
herbicidal effect SETVI [7]: 100%
herbicidal effect LOLMU [8]: 100%
herbicidal effect ALOMY [9]: 100%
herbicidal effect ECHCG [10]: 100%

CCc1cc(C)cc(C)c1C1=C(OC(=O)C(C)(C)C)C2CC3(CC2C1=O)OCCCCO3 (centres unmarked) [I-b-78]
herbicidal effect AVEFA [1]: 60%
herbicidal effect against AVEFA (Avena fatua) [2]: 70%
herbicidal effect against SETVI (Setaria viridis) [3]: 70%
herbicidal effect against LOLMU (Lolium multiflorum) [4]: 100%
herbicidal effect against ALOMY (Alopecurus myosuroides) [5]: 100%
herbicidal effect against ECHCG (Echinochloa crus-galli) [6]: 100%
herbicidal effect SETVI [7]: 60%
herbicidal effect LOLMU [8]: 100%
herbicidal effect ALOMY [9]: 100%
herbicidal effect ECHCG [10]: 100%
